US7405317B2, “Phosphate-bearing prodrugs of sulfonyl hydrazines as hypoxia-selective antineoplastic agents” (priority 2004, dated 2008)
Like-named read-outs stand apart in the source and are kept apart here.

Key:
[1] = tested on: EMT6 murine mammary carcinoma cells; experiment: Aerobic/hypoxic cell survival (clonogenic assay), EMT6; format: cell-based; conditions: for cell kill: 0.1% oxygen, 10 μM drug concentration; for cell kill / cytotoxicity to EMT6 cells under oxygenated conditions: FIG. 5; for drug activity as a function of oxygen concentration: 10 or 25 μM, oxygen 0.05% to 21%, FIG. 6; for cytotoxicity to EMT6 cells under oxygenated conditions: normal air (21% oxygen), concentrations up to 25 μM; for in vitro cytotoxic activity to EMT6 cells versus parental racemic drug (potency and aerobic/hypoxic differential): de-phosphorylated enantiomers, aerobic/hypoxic cell assay
Description: (§1) EMT6 or CHO (parental or human cytochrome P-450 reductase transfected) cells, seeded in glass milk dilution bottles, were gassed for 2 hours through a rubber septum fitted with 13 gauge (inflow) and 18 gauge (outflow) needles with a mixture of 5% CO2, oxygen at various concentrations, with the balance of the mixture made up of nitrogen, to establish various hypoxic conditions. Drugs were then injected without disrupting hypoxia. After two hours, cells were collected and plated in a clonogenic assay to determine the surviving fraction, compared to untreated controls.
(§2) For in vitro analysis, KS119W must be converted to KS119OH (1) in an AP-catalyzed reaction shown above in FIG. 2, as the phosphorylated parent drug cannot cross cell membranes. KS119OH is then used in all subsequent in vitro studies shown in this section.
Moreover, the R- and S-enantiomers of KS119W (VNP40541 and VNP40551) were converted to the corresponding de-phosphorylated forms for study in the in vitro aerobic/hypoxic cell assay.

[2] = tested on: H460 human lung carcinoma; format: in vivo, mice; conditions: for tumor growth inhibition: H460 in CD-1 nude mice, KS119W 4 doses 180 mg/kg and 1 dose 240 mg/kg, CTX 100 mg/kg per dose, ip on days 15, 22, 27, 34, 43, CTX two hours after KS119W, FIG. 9; for reduction of final tumor volume compared with control group: H460, daily ip, FIG. 8
Description: (§3) The anti-tumor effects of aforementioned prodrugs are evaluated in both solid and liquid tumor models, including the B16-F10 murine melanoma, HTB177 human lung carcinoma models, DLD1 human colon carcinoma, EMT-6 murine mammary gland carcinoma, L1210 murine leukemia, lymphoma, prostate cancer, pancreatic cancer, and head-and-neck cancer. The prodrugs are given intravenously, orally, or intraperitoneally at doses from 10 mg/kg to 2000 mg/kg; they are give at different dosing schedules such as 4 times daily, once daily, or once every several days for up to 60 doses. Testing tumor cells were implanted subcutaneously into mice, which were randomized into groups immediately after tumor cell implantation (Day 0). Mice were injected intraperitoneally (ip) with either a bolus injection of 0.1 mL PBS or drug. The treatment was carried out in a designed dosing schedule. Tumor measurement in three dimensions was determined once a week with the formula L×H×W/2, where L, H, and W represent length, height, and width, respectively.
(§4) Efficacy of KS119 was studied in murine tumor model and human xenograft models. EMT-6 murine mammary carcinoma cells (3×10^5 cells/mouse) were implanted subcutaneously into Balb/c mice. H460 human lung carcinoma cells, HT29 human colon carcinoma cells and SHP77 human lung carcinoma cells were established as solid xenografts in nu/nu CD-1 mice and Scid/Beige mice with 7×10^7 cells/mouse, respectively. After implantation, tumors were allowed to grow to a size of 150 to 200 mm^3 before starting treatment with KS119. KS119 was formulated in a solvent containing polyethylene glycol 300 (PEG), ethyl alcohol, citric acid, and ascorbic acid.
(§5) Efficacies of KS119W and KS119 were compared with equivalence molar doses in EMT-6 tumor and H460 tumor models. KS119W was formulated with 0.25M sodium bicarbonate solution. The treatment was started when tumors researched 150 to 200 mm^3, and lasted up to 2 weeks. KS119 at doses of 80 and 100 mg/kg and KS119W at doses of 97.6 and 121.3 mg/kg were daily administrated into mice via ip injection. […] To assess the toxicity of treatment, body weight and peripheral blood cell count were monitored after treatment.
(§6) Combined therapy of KS119W with cytoxan (CTX) was evaluated by using KS119W at dose below the MTD in combination with nontoxic dose of CTX against EMT-6 murine mammary carcinoma and H460 human lung carcinoma in CD-1 nude mice. The tumors were allowed to grow to a size of approximately 200 mm^3. In H460 tumor model, the animals received either with 4 doses 180 mg/kg and 1 dose 240 mg/kg of KS119 or CTX at dose of 100 mg/kg per dose per animal, ip injecting the drugs on 15, 22, 27, 34 and 43 days after the tumor implantation. In the combination studies, CTX was given two hours after dosing KS119W.

[3] = tested on: EMT-6 murine mammary carcinoma; format: in vivo, mice; conditions: for tumor growth inhibition: EMT-6, KS119W daily 97 mg/kg for 7 doses, CTX 100 mg/kg ip once per week for 4 doses
Description: as §3, §4, §5, §6

[4] = Solubility of KS119 in co-solvent system; format: physicochemical; conditions: polyethylene glycol (PEG) and ethanol co-solvent system, organic solvent or mixture, read-out: solubility in co-solvent system like polyethylene glycol (PEG) and ethanol
[5] = Toxicity of treatment in tumor-bearing mice (body weight, blood cell count, appearance); format: in vivo; conditions: for toxicity of treatment (body weight, peripheral blood cell count): KS119 80 and 100 mg/kg, KS119W 97.6 and 121.3 mg/kg, daily ip
Description: as §3, with “respectively. The toxicity of these drugs in mice was mild as determined by body weight loss and animal appearance.” for “respectively.”
Efficacies of KS119W and KS119 were compared with equivalence molar doses in EMT-6 tumor and H460 tumor models. KS119W was formulated with 0.25M sodium bicarbonate solution. The treatment was started when tumors researched 150 to 200 mm^3, and lasted up to 2 weeks. KS119 at doses of 80 and 100 mg/kg and KS119W at doses of 97.6 and 121.3 mg/kg were daily administrated into mice via ip injection. […] The toxicity of KS119 and KS119W were dose-dependent. To assess the toxicity of treatment, body weight and peripheral blood cell count were monitored after treatment.
as §6, with “KS119W. […] The inhibition of combination therapy was statistically significant against all control groups with p values of 0.003, 0.015 and 0.038, respectively. Additive toxicity at the doses used for combination was manageable; while the 180 mg/kg qw ×4 doses of KS119W alone caused a maximum net body weight loss of 4.5%, the same dose in combination with 4 doses of CTX at 100 mg/kg per week caused 8.6% weight loss but no death. A similar degree of growth inhibition was also observed with EMT-6 tumor model. […]” for “KS119W.”

[6] = tested on: CHO-450red (human cytochrome P-450 reductase transfected CHO cells); experiment: Aerobic/hypoxic cell survival, cytochrome P-450 reductase transfected CHO cells; format: cell-based; conditions: drug 10 μM
Description: as §1, §2
(§7) Like KS119, cytochrome P-450 reductase can activate KS1190H under hypoxic conditions.

[7] = tested on: CHO-SCS-II (non-transfected parental line); experiment: Aerobic/hypoxic cell survival, parental CHO cells; format: cell-based; conditions: drug 10 μM
Description: as §1, §2, §7

[8] = Maximum tolerated dose (MTD) finding; format: in vivo, mice
Description: In order to fairly select a better compound from two enantiomers of KS119W for future clinical development, finding maximum tolerated dose (MTD) for VNP40541 (R-form) and VNP40551 (S-form) was conducted and the results were shown as Table 3.

[9] = tested on: SHP77 human lung carcinoma; experiment: In vivo anti-tumor activity, SHP77 xenograft; parameters: species or system mice; conditions: SHP77/Scid-Beige; dose VNP40541 110 mpk, VNP40551 85 mpk
Description: as §3, with “respectively. The toxicity of these drugs in mice was mild as determined by body weight loss and animal appearance.” for “respectively.”
Efficacy of KS119 was studied in murine tumor model and human xenograft models. EMT-6 murine mammary carcinoma cells (3×10^5 cells/mouse) were implanted subcutaneously into Balb/c mice. […]

[10] = KS119W 97.2 mg/kg ×10 doses, KS119 equal molar dose 80 mg/kg
[11] = KS119W 121.6 mg/kg ×7 doses, KS119 equal molar dose 100 mg/kg

Structure (SMILES): CC(OC(=O)N(N(CCCl)S(C)(=O)=O)S(C)(=O)=O)c1ccc([N+](=O)[O-])c(O)c1 (racemic) [KS119OH]
- cell kill [1]: ~5 orders of magnitude
- drug activity as a function of oxygen concentration [1]: significant drug activity at all oxygen concentrations below 10% oxygen
- cytotoxicity to EMT6 cells under oxygenated conditions [1]: virtually inactive

Structure (SMILES): O=P1(N(CCCl)CCCl)NCCCO1 (stereo not shown) [CTX, reference compound]
- tumor growth inhibition [2]: 54%
- tumor growth inhibition [3]: negligible effect

Structure (SMILES): CC(OC(=O)N(N(CCCl)S(C)(=O)=O)S(C)(=O)=O)c1ccc([N+](=O)[O-])cc1 (stereo not shown) [KS119, 1,2-Bis(methylsulfonyl)-2-(2-chloroethyl)-hydrazine carboxylic acid 1-(4-nitrophenyl)ethyl ester, reference compound]
- solubility [4]: < 5000 µg/mL
- toxicity of treatment (body weight, peripheral blood cell count) [5]: not significant hematological toxicity or severe weight loss
- reduction of final tumor volume compared with control group [2, 10]: 40%
- reduction of final tumor volume compared with control group [2, 11]: 40%
- cell kill [1]: ~5 orders of magnitude
- drug activity as a function of oxygen concentration [1]: significant drug activity at all oxygen concentrations below 10% oxygen
- cytotoxicity to EMT6 cells under oxygenated conditions [1]: virtually inactive

Structure (SMILES): CC(OC(=O)N(N(CCCl)S(C)(=O)=O)S(C)(=O)=O)c1ccc([N+](=O)[O-])c(OP(=O)(O)O)c1 (stereo not shown) [KS119W, 1,2-Bis(methylsulfonyl)-2-(2-chloroethyl)hydrazine-carboxylic acid 1-(3-dihydrogenphosphonoxy-4-nitrophenyl)ethyl ester]
- toxicity of treatment (body weight, peripheral blood cell count) [5]: not significant hematological toxicity or severe weight loss
- maximum net body weight loss ([5]; KS119W 180 mg/kg qw ×4 doses alone or with 4 doses of CTX at 100 mg/kg per week): 4.5%
- reduction of final tumor volume compared with control group [2, 10]: 60%
- reduction of final tumor volume compared with control group [2, 11]: 78%
- tumor growth inhibition [2]: 78%
- tumor growth inhibition [3]: 59%
- Surviving fraction at 0.1% oxygen [6]: 0.009444
- Surviving fraction in air [6]: 0.8791
- Surviving fraction at 0.1% oxygen [7]: 0.3336
- Surviving fraction in air [7]: 1.185

Structure (SMILES): C[C@@H](OC(=O)N(N(CCCl)S(C)(=O)=O)S(C)(=O)=O)c1ccc([N+](=O)[O-])c(O)c1 [R-KS119OH]
- in vitro cytotoxic activity to EMT6 cells versus parental racemic drug (potency and aerobic/hypoxic differential) [1]: very similar to the parental racemic drug

Structure (SMILES): C[C@H](OC(=O)N(N(CCCl)S(C)(=O)=O)S(C)(=O)=O)c1ccc([N+](=O)[O-])c(O)c1 [S-KS119OH]
- in vitro cytotoxic activity to EMT6 cells versus parental racemic drug (potency and aerobic/hypoxic differential) [1]: very similar to the parental racemic drug

Structure (SMILES): C[C@H](OC(=O)N(N(CCCl)S(C)(=O)=O)S(C)(=O)=O)c1ccc([N+](=O)[O-])c(OP(=O)(O)O)c1 [VNP40551]
- MTD ([8]; BALB/c mice, × 5): 85 mpk
- MTD ([8]; Nude CD-1 mice, × 10): 80 mpk
- MTD ([8]; Scid/Beige mice, × 8): 85 mpk
- Inhibition (%) ([2]; H460/Nude Mice, dose VNP40541 80-140 mpk, VNP40551 40-80 mpk): 53-80%
- Inhibition (%) ([3]; EMT6/BLAB-c Mice, dose VNP40541 85-115 mpk, VNP40551 55-85 mpk): 52-78%
- Surviving fraction at 0.1% oxygen [6]: 0.002553
- Surviving fraction in air [6]: 1.015
- Inhibition (%) [9]: 82%
- Surviving fraction at 0.1% oxygen [7]: 0.1188
- Surviving fraction in air [7]: 1.148
